Experimental data from patent publication US12208098B2, “4-carbonylamino-4-phenylpyrimidine compound or pharmaceutically acceptable salt thereof” (Gachon University Of Industry-Academic Cooperation …, priority 2018, dated 2025).

Biological target: T1, Glutamate Dehydrogenase (GDH) (Rattus norvegicus, UniProt P10860)
T1 construct: only the supernatant was collected and transferred to a new tube to obtain a cell lysate; endogenous in cells; host or cells: INS-1 cell line (lysate)
Assay: Enzyme activation experiment: GDH Activity Colorimetric Assay Kit on INS-1 cell lysate
Type: biochemical
Conditions: vehicle-treated group set to 1
Protocol: Enzyme Activation Experiment
A sufficient amount of cells was obtained by culturing the INS-1 cell line under general cell culture condition (37° C. 5% CO2). Immediately before use in the experiment, a culture dish of the INS-1 cells was placed on ice, the culture medium was removed, and then washed with cold phosphate-buffered saline (PBS) (WELGEME, LB 001-02) to obtain a cell pellet.
To the harvested cell pellet, an appropriate amount of ice-cold Assay Buffer contained in the Glutamate Dehydrogenase (GDH) Activity Colorimetric Assay Kit (BioVision, K729-100) was added and then homogenized in the tube.
The tube was subjected to centrifuge in a condition of 13,000 g, 4° C. for 10 minutes, and then the pellet was discarded, and only the supernatant was collected and transferred to a new tube to obtain a cell lysate. Then, the protein concentration of the cell lysate was measured using Pierce™ BCA Protein Assay kit (Thermo, 23225).
By referring to the measured protein concentration, the cell lysate was prepared by diluting its concentration to 30 μg/50 μL or 100 μg/50 μL using the Assay Buffer.
The prepared cell lysate+vehicle or compound+Reaction mix was added according to the volume determined in the protocol of the Glutamate Dehydrogenase (GDH) Activity Colorimetric Assay Kit and reacted at 37° C., and the absorbance at 450 nm was measured using a kinetic method.
The GDH activity was calculated according to the calculation formula shown in the Assay Kit, and then the activity of the group treated with the vehicle was set to 1, and the folds of the remaining groups were calculated, and the results are shown in Table 2 below and FIG. 1.

T1 sequence (P10860 54-558): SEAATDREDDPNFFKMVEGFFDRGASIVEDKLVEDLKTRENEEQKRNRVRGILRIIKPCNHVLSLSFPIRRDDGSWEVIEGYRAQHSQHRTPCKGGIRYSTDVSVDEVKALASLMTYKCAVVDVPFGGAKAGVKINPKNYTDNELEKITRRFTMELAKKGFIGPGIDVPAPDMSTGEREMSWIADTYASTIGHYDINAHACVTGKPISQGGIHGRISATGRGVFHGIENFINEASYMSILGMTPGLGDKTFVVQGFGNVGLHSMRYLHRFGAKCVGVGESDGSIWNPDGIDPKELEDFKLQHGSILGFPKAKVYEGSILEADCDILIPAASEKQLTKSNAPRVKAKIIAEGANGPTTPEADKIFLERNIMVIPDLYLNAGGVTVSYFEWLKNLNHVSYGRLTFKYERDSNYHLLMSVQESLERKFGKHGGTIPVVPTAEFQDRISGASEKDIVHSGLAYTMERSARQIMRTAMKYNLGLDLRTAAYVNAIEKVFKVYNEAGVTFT

| Enzyme activity (fold) (compound concentration 0.2 μM) | Enzyme activity (fold) (compound concentration 2 μM) | SMILES |
| --- | --- | --- |
| 2.14 | 6.93 | Nc1nccc(-c2ccc(NC(=O)c3ccc(Br)cc3)cc2)n1 [Compound 6, N-(4-(2-aminopyrimidin-4-yl)phenyl)-4-bromobenzamide] |
| 1.34 | 11.05 | Nc1nccc(-c2ccc(NC(=O)c3ccc(Cl)cc3)cc2)n1 [Compound 8, N-(4-(2-aminopyrimidin-4-yl)phenyl)-4-chlorobenzamide] |

Second part, the molecule before the results:

| SMILES | Enzyme activity (fold) (compound concentration 0.2 μM) | Enzyme activity (fold) (compound concentration 2 μM) |
| --- | --- | --- |
| COc1cc(C(=O)Nc2ccc(-c3ccnc(N)n3)cc2)ccc1Cl [Compound 7, N-(4-(2-aminopyrimidin-4-yl)phenyl)-4-chloro-3-methoxybenzamide] | 1.94 | 3.23 |
| Nc1nccc(-c2ccc(NC(=O)c3cc(Cl)cc(Cl)c3)cc2)n1 [Compound 9, N-(4-(2-aminopyrimidin-4-yl)phenyl)-3,5-dichlorobenzamide] | 1.13 | 6.43 |
| Nc1nccc(-c2ccc(NC(=O)c3cccc(C(F)(F)F)c3F)cc2)n1 [Compound 10, N-(4-(2-aminopyrimidin-4-yl)phenyl)-2-fluoro-3-(trifluoromethyl)benzamide] | 2.08 | 10.83 |
